Test results: patent US20110094885A1, “Flexible Drug Delivery Chip, its Fabrication Method and Uses Thereof” (NATIONAL CHIAO TUNG UNIVERSITY, priority 2009, published 2011)

Tested on: spontaneous SWDs
Assay: Spontaneous spike-wave discharges (SWDs) in Long-Evans rats
Assay type: in vivo
Conditions: 0.5 ml, 28 mg/kg, i.p.; vs saline; n=8
Method: All rats were kept in a sound-attenuated room under a 12:12 hour light-dark cycle (07:00-19:00 lights on) with food and water provided ad libitum. The experimental procedures were reviewed and approved by the Institutional Animal Care and Use Committee. Briefly, the recording electrodes were implanted under pentobarbital anesthesia (60 mg/kg, i.p.). Subsequently, the rat was placed in a standard stereotaxic apparatus. In total, six stainless steel screws were driven bilaterally into the skull overlying the frontal (A +2.0, L 2.0 with reference to the bregma) and occipital (A −6.0, L 2.0) regions of the cortex to record cortical field potentials. A ground electrode was implanted 2 mm caudal to lambda. Dental cement was applied to fasten the connection socket to the surface of the skull. Following suturing to complete the surgery, animals were given an antibiotic (chlortetracycline) and housed individually in cages for recovery. […] In this preliminary animal test, we compared effect among saline, ethosuximide (ESM), ESM-loaded nanoparticles (ESM-Fe3O4@SiO2) and ESM-containing chip (ESM-Chip) in spontaneous SWDs of Long-Evans rats. […] In this experiment, we recorded 1-hour spontaneous brain activity before the treatment (baseline) and another 1-hour spontaneous brain activity 30 minutes after the treatment. […]

Compound: CCC1(C)CC(=O)NC1=O (centres unmarked) [ESM, ethosuximide]
- SWD number: significantly decreased
- total SWD duration: significantly decreased
